Data taken from patent publication US11311625B2, “Peptide-based multiple-drug delivery vehicle” (priority 2015, dated 2022).

Assays:
[1] = tested on: HEK293 and TRAMP C2 cell lines; type: cell-based, human
Protocol: The cytotoxicity of the conjugates was determined by measuring the mitochondrial enzyme activity, using a commercial XTT assay kit. All samples contained DMSO at a final concentration <0.05%. Cells were cultured in micro wells at 2-4×10^4 cells/mL and incubated for 24 h or 72 h at 37° C. After the first incubation period of 24 h the cultures were washed and then given a fresh medium containing different concentrations of the tested substances. At the end of the second incubation, XTT reagent was added and the cells were re-incubated for additional 2-4 h. During that time the absorbencies in the wells were measured with a TECAN Infinite M200 ELISA reader at both 480 and 680 nm. […]
The in vitro activity of 9a was determined on human embryonic kidney 293 (HEK293) cells and human prostate cancer TRAMP C2 cell lines in order to compare the cytotoxicity of 9a relative to the three selected free drugs. […] The cytotoxicity of 9a was determined by measuring the mitochondrial enzyme activity of the different cell lines after incubation with the different substances for 24 h and 72 h. The viability factor (% of surviving cells) of the cell cultures was calculated relative to a control sample incubated with the vehicle only, considered as 100% viability. […]
FIGS. 19A-19D present the results of the viability assay (% surviving cells) of the cell cultures calculated relative to the control, 100% viability. […]

[2] = tested on: human prostate cancer TRAMP C2 cell lines; type: cell-based
Protocol: (§1) The cytotoxicity of the conjugates was determined by measuring the mitochondrial enzyme activity, using a commercial XTT assay kit. All samples contained DMSO at a final concentration <0.05%. Cells were cultured in micro wells at 2-4×10^4 cells/mL and incubated for 24 h or 72 h at 37° C. After the first incubation period of 24 h the cultures were washed and then given a fresh medium containing different concentrations of the tested substances. At the end of the second incubation, XTT reagent was added and the cells were re-incubated for additional 2-4 h. During that time the absorbencies in the wells were measured with a TECAN Infinite M200 ELISA reader at both 480 and 680 nm. The difference between these measurements was used for calculating the % viability in test wells compared to two controls: cells that were exposed to the medium and solvent, and those which were exposed to a solvent-free medium. All the tests were done in triplicate. Each experiment was conducted twice.
(§2) The in vitro activity of 9a was determined on human embryonic kidney 293 (HEK293) cells and human prostate cancer TRAMP C2 cell lines in order to compare the cytotoxicity of 9a relative to the three selected free drugs. […] The cytotoxicity of 9a was determined by measuring the mitochondrial enzyme activity of the different cell lines after incubation with the different substances for 24 h and 72 h.

[3] = tested on: human embryonic kidney 293 (HEK293) cells; type: cell-based
Protocol: as §1, §2

[4] = Bio-stability of 9a in murine liver homogenate (LH); type: in vitro ADME, mouse
Protocol: Preparation of the LH and assay: Mice were sacrificed by CO2 inhalation euthanasia. The livers were removed, minced, washed three times in cold PBS buffer and homogenized in Tris-HCl, pH 7.4 buffer (wt/3 vol.) by dozen strokes in a Potter-Elvehjem glass tissue grinder. The tissue homogenate was centrifuged at 4° C., 14000 rpm, 20 min. The supernatant was carefully collected (LH) and used immediately or else stored in liquid nitrogen. The concentration of protein was measured using the BCA protein assay with bovine serum albumin as a standard.
Assay incubation procedure: Incubations were conducted in an incubator oven set at 37° C. Each incubation tube contained 2 mL homogenate samples (equivalent to 6 mg total protein of mouse LH). The samples were prepared by adding 50 μL of stock solution to the LH at the beginning of the incubation period. Aliquots (100 μL) of the LH mixture were removed after 10, 30, 60, 90, 120, and 180 min. immediately quenched with 2.5 volumes of ethanol, and centrifuged at 14000 rpm for 15 min. The supernatants were collected, filtered and analyzed by LC-MS.
In order to get a biologically relevant picture of the release sequence of the different drugs, the bio-stability of 9a in murine liver homogenate (LH) was studied. Examination of the degradation rate of 9a, accompanied by cleavage of free drugs, was carried out following the LC-MS trace at different time intervals using premade authentic samples as reference signals.

In the case of `COc1cc([C@@H]2c3[nH]c4ccccc4c3C[C@H]3COC(=O)N32)cc(OC)c1O` [AZA, Azatoxin, reference compound], the “cytotoxic effect / relative cytotoxic activity” value [1] is reported as “most active drug”, the surviving cells [2] is reported as “less than 10%” and the surviving cells [3] is reported as “less than 10%”. The “stability of free drug in LH” value [4] was “stable”.
